The text below walks through data of ChEMBL document CHEMBL2407081, “Discovery of potent, isoform-selective inhibitors of histone deacetylase containing chiral heterocyclic capping groups and a N-(2-aminophenyl)benzamide binding unit” (J Med Chem, 2013).

Bounds are passed on as bounds.

Experiment [1] concerns the target Histone deacetylase 1 (Homo sapiens, UniProt Q13547). Briefly: Inhibition of recombinant C-terminal FLAG-tagged HDAC1 (unknown origin) expressed in Escherichia coli BL21 using MAL as substrate incubated for 1 hr prior to substrate addition measured after 60 mins by fluorescence plate reader analysis.
The target in experiment [2] is T1, Protein deacetylase HDAC6 (Homo sapiens, UniProt Q9UBN7).
T1 sequence (Q9UBN7 whole entry): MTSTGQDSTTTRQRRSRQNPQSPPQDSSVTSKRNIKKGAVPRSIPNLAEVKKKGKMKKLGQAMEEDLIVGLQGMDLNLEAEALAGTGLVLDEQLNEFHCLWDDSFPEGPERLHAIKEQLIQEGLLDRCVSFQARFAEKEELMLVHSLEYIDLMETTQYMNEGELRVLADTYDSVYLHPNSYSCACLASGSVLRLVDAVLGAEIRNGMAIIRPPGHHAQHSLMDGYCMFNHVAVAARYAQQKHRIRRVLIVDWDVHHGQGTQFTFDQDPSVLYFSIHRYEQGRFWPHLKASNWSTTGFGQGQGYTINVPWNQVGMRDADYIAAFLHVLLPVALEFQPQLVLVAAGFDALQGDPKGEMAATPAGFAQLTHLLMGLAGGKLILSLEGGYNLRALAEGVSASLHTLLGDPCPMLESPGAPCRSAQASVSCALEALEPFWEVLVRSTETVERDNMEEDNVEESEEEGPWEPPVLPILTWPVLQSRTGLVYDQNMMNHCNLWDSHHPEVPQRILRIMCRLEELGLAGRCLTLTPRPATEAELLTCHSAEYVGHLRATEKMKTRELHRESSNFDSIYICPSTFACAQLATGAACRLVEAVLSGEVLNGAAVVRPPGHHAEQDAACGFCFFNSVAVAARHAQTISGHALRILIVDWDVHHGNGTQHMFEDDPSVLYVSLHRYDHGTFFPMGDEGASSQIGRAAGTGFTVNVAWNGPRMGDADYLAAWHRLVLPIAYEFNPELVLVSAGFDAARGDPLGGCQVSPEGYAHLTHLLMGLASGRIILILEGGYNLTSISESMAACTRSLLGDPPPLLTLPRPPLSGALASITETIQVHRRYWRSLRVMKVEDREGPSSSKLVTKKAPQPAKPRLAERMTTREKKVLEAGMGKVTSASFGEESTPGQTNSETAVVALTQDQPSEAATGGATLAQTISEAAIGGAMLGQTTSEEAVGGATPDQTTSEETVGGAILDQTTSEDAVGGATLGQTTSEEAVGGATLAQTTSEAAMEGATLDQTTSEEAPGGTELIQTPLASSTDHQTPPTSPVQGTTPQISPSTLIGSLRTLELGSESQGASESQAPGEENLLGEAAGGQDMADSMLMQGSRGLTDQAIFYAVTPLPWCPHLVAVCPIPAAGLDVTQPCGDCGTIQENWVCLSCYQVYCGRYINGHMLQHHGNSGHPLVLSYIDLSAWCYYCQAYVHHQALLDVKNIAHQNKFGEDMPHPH
Kind of experiment: Inhibition of recombinant His-tagged HDAC6 (unknown origin) using Fluor-de-Lys SIRT1 as substrate incubated for 3 hrs prior to substrate addition measured after 60 mins by fluorescence plate reader analysis.

Experiment [3] concerns MCF7. Briefly: Cytotoxicity against human MCF7 cells assessed as growth inhibition by measuring cellular ATP level after 72 hrs by cell-titer glo assay. The experiment is classed as functional, cell-based. To be noted: MCF7, 72 h.
Experiment [4] deals with Cytochrome P450 3A4 (Homo sapiens, UniProt P08684). Kind of experiment: Inhibition of CYP3A4 (unknown origin) using vivid green as substrate. In kind it is ADME.
Chain of Cytochrome P450 3A4 (P08684 whole entry): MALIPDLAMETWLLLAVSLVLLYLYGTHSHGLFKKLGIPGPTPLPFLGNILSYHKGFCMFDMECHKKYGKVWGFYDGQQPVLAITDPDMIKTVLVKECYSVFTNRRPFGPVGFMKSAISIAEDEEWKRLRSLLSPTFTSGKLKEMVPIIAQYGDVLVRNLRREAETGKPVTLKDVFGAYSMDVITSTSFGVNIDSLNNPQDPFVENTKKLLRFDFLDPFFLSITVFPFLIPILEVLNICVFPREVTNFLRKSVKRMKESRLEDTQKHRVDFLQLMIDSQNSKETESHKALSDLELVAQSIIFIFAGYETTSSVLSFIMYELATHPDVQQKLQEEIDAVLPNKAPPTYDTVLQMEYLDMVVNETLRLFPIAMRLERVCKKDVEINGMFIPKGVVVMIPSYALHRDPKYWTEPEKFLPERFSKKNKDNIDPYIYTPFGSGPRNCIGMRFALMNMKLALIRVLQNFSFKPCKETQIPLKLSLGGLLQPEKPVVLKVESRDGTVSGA

Chain of Histone deacetylase 1 (Q13547 whole entry): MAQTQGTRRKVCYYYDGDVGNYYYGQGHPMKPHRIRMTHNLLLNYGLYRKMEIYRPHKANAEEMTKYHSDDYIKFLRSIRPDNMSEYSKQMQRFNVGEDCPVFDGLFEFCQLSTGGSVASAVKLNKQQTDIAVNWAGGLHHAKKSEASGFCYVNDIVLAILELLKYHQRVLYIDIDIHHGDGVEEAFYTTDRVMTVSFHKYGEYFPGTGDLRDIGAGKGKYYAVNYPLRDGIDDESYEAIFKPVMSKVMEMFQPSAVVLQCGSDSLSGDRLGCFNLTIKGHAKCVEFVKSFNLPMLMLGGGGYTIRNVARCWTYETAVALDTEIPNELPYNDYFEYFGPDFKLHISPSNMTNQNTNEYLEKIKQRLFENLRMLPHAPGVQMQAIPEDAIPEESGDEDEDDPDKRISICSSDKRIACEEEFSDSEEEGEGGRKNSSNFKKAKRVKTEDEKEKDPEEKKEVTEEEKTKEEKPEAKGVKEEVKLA

With `Nc1ccccc1NC(=O)c1ccc(CNC2=N[C@@H](c3ccccc3)CS2)cc1`, the IC50 – broadly, the point on the concentration scale where inhibition reaches its midpoint – in experiment [1] is 930 nM; in experiment [2], over 20 µM; in experiment [3], 5.43 µM; in experiment [4], 16 µM.
